Measured values as given in BigSolDB 2.1.

CC1=NNC(=O)N(/N=C/c2cccnc2)C1
solubility (mole fraction)
Settings | 278.15 K | 283.15 K | 288.15 K | 293.15 K | 298.15 K | 303.15 K | 308.15 K | 313.15 K | 318.15 K
in 1,4-dioxane | – | – | 0.000462 | 0.00054 | 0.000629 | 0.000728 | 0.000842 | 0.000964 | 0.0011
in DMF | 0.0031 | 0.00347 | 0.00398 | 0.00451 | 0.00515 | 0.00582 | 0.00656 | 0.00738 | 0.00832
in DMSO | – | – | – | 0.00762 | 0.00862 | 0.00985 | 0.0112 | 0.0126 | 0.0144
in NMP | 0.00163 | 0.00189 | 0.0022 | 0.00255 | 0.00295 | 0.00338 | 0.00389 | 0.00444 | 0.00506
in isopropanol | 0.000198 | 0.000232 | 0.00028 | 0.000331 | 0.000391 | 0.000461 | 0.00054 | 0.000625 | 0.000729
in n-butanol | 0.000159 | 0.00019 | 0.000229 | 0.000277 | 0.000332 | 0.000389 | 0.00046 | 0.000537 | 0.000635
